Counter-ions that a name gives are not always drawn.

This experiment relates to NQO1 specific enzyme activity in BEAS-2B cells. Put plainly: BEAS-2B NQO1 MTT assay. The format is cell-based. Particulars: Homo sapiens, BEAS-2B, 48 h, NQO1 specific enzyme activity induction in BEAS-2B cells, 48 hours; read-out: EC50. The essentials:
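BEAS-2B cells exposed to compound 48 h at 37° C, 5% CO2, then lysed. NQO1 activity read kinetically in lysate with MTT cocktail (absorbance 570 nm, 30 min); Cell Titer Glo run on a lysate aliquot. pEC50 from ΔOD/min versus log concentration, 3-parameter fit.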
For orientation: EC50 means the concentration that produces a half-maximal response. On to `COc1cc(C(CC(=O)O)c2ccc3c(c2)C(N2Cc4cnccc4OC(C)(C)C2)CC3)cc2nnn(C)c12` (stereo not drawn) [Example 46, 3-(3-(2,2-Dimethyl-2,3-dihydropyrido[3,4-f][1,4]oxazepin-4(5H)-yl)-2,3-dihydro-1H-inden-5-yl)-3-(7-methoxy-1-methyl-1H-benzo[d][1,2,3]triazol-5-yl)propanoic Acid, Formic Acid Salt], for which the EC50 was 10 to 100 nM.

As to `Cc1ccc2c(c1)CN(C1CCc3ccc(C(CC(=O)O)c4ccc5c(nnn5C)c4C)cc31)C[C@@H](C)O2` (stereo partly drawn) [Example 47, 3-(1,4-Dimethyl-1H-benzo[d][1,2,3]triazol-5-yl)-3-(3-((R)-2,7-dimethyl-2,3-dihydrobenzo[f][1,4]oxazepin-4(5H)-yl)-2,3-dihydro-1H-inden-5-yl)propanoic Acid, Formic Acid Salt], the concentration for a half-maximal effect (EC50) is 10 to 100 nM.

As for `Cc1c(C(CC(=O)O)c2ccc3c(c2)C(N2Cc4cnccc4OC(C)(C)C2)CC3)ccc2c1nnn2C` (stereo not drawn) [Example 48, 3-(1,4-Dimethyl-1H-benzo[d][1,2,3]triazol-5-yl)-3-(3-(2,2-dimethyl-2,3-dihydropyrido[3,4-f][1,4]oxazepin-4(5H)-yl)-2,3-dihydro-1H-inden-5-yl)propanoic Acid, Formic Acid Salt], the EC50 lay within 10 to 100 nM.

For the compound `Cc1c(C(c2ccc3c(c2)C(N2Cc4cccnc4O[C@@H](C)C2)CC3)C(C)(C)C(=O)O)ccc2c1nnn2C` (stereo partly drawn) [Example 49, 3-(1,4-Dimethyl-1H-benzo[d][1,2,3]triazol-5-yl)-2,2-dimethyl-3-(3-((S)-2-methyl-2,3-dihydropyrido[3,2-f][1,4]oxazepin-4(5H)-yl)-2,3-dihydro-1H-inden-5-yl)propanoic Acid, Formic Acid Salt], the EC50 fell in the range of 10 to 100 nM.

Take `CC[C@@H]1CN(C2CCc3ccc(C(CC(=O)O)c4ccc5c(nnn5C)c4C)cc32)Cc2ccccc2O1` (stereo partly drawn) [Example 50, 3-(1,4-Dimethyl-1H-benzo[d][1,2,3]triazol-5-yl)-3-(3-((R)-2-ethyl-2,3-dihydrobenzo[f][1,4]oxazepin-4(5H)-yl)-2,3-dihydro-1H-inden-5-yl)propanoic Acid, Formic Acid Salt]: the half-maximal effective concentration (EC50) fell in the range of 10 to 100 nM.

Consider `Cc1c(C(CC(=O)O)c2ccc3c(c2)C(N2Cc4cccnc4OC(C)(C)C2)CC3)ccc2c1nnn2C` (stereo not drawn) [Example 51], for which the half-maximal effective concentration (EC50) lay in the range of 10 to 100 nM.

As to `COc1cc(C(CC(=O)O)c2ccc3c(c2)C(N2CCOc4ccccc4C2)CC3)c(C)c2nnn(C)c12` (stereo not drawn) [Example 52, 3-(3-(2,3-Dihydrobenzo[f][1,4]oxazepin-4(5H)-yl)-2,3-dihydro-1H-inden-5-yl)-3-(7-methoxy-1,4-dimethyl-1H-benzo[d][1,2,3]triazol-5-yl)propanoic Acid, Formic Acid Salt], the EC50 fell in the range of 10 to 100 nM.

On to `Cc1c(C(CC(=O)O)c2ccc3c(c2)C(N2Cc4ccccc4O[C@H](C)C2)CC3)ccc2c1nnn2C` (stereo partly drawn) [Example 53, 3-(1,4-Dimethyl-1H-benzo[d][1,2,3]triazol-5-yl)-3-(3-((R)-2-methyl-2,3-dihydrobenzo[f][1,4]oxazepin-4(5H)-yl)-2,3-dihydro-1H-inden-5-yl)propanoic Acid], for which the 50% effective concentration (EC50) lay in the range of 100 to 1000 nM.

Regarding `Cc1c(C(c2ccc3c(c2)C(N2CCOc4ncccc4C2)CC3)C(C)(C)C(=O)O)ccc2c1nnn2C` (stereo not drawn) [Example 54, 3-(3-(2,3-Dihydropyrido[3,2-f][1,4]oxazepin-4(5H)-yl)-2,3-dihydro-1H-inden-5-yl)-3-(1,4-dimethyl-1H-benzo[d][1,2,3]triazol-5-yl)-2,2-dimethylpropanoic Acid, Formic Acid Salt, Formic Acid Salt], the EC50 fell in the range of 100 to 1000 nM.

Consider `COc1cc(C(CC(=O)O)c2ccc3c(c2)C(N2Cc4cccnc4OC(C)(C)C2)CC3)cc2nnn(C)c12` (stereo not drawn) [Example 55, 3-(3-(2,2-Dimethyl-2,3-dihydropyrido[3,2-f][1,4]oxazepin-4(5H)-yl)-2,3-dihydro-1H-inden-5-yl)-3-(7-methoxy-1-methyl-1H-benzo[d][1,2,3]triazol-5-yl)propanoic Acid, Formic Acid Salt], for which the EC50 is 100 to 1000 nM.

Regarding `Cc1c(C(CC(=O)O)c2ccc3c(c2)C(N2Cc4ccccc4O[C@@H](C)C2)CC3)ccc2c1nnn2C` (stereo partly drawn) [Example 56, 3-(1,4-Dimethyl-1H-benzo[d][1,2,3]triazol-5-yl)-3-(3-((S)-2-methyl-2,3-dihydrobenzo[f][1,4]oxazepin-4(5H)-yl)-2,3-dihydro-1H-inden-5-yl)propanoic Acid, Formic Acid Salt], the EC50 was 100 to 1000 nM.

On to `CC[C@@H]1CN(C2CCc3ccc(C(CC(=O)O)c4ccc5c(nnn5C)c4C)cc32)Cc2cnccc2O1` (stereo partly drawn) [Example 57, 3-(1,4-Dimethyl-1H-benzo[d][1,2,3]triazol-5-yl)-3-(3-((R)-2-ethyl-2,3-dihydropyrido[3,4-f][1,4]oxazepin-4(5H)-yl)-2,3-dihydro-1H-inden-5-yl)propanoic Acid, Formic Acid Salt], for which the half-maximal effective concentration (EC50) was in the range of 100 to 1000 nM.

Turning to `Cc1c(C(CC(=O)O)c2ccc3c(c2)C(N2CCOc4ccccc4C2)CC3)ccc2c1nnn2C` (stereo not drawn) [Example 58, 3-(3-(2,3-Dihydrobenzo[f][1,4]oxazepin-4(5H)-yl)-2,3-dihydro-1H-inden-5-yl)-3-(1,4-dimethyl-1H-benzo[d][1,2,3]triazol-5-yl)propanoic Acid, Formic Acid Salt], the EC50 was in the range of 100 to 1000 nM.

As to `Cc1cc(C#N)ccc1C(CC(=O)O)c1ccc2c(c1)C(N1Cc3cccnc3OC(C)(C)C1)CC2` (stereo not drawn) [Example 59, 3-(4-Cyano-2-methylphenyl)-3-(3-(2,2-dimethyl-2,3-dihydropyrido[3,2-f][1,4]oxazepin-4(5H)-yl)-2,3-dihydro-1H-inden-5-yl)propanoic Acid, Formic Acid Salt], the half-maximal effective concentration (EC50) was 100 to 1000 nM.

Regarding `Cc1cc(F)ccc1C(CC(=O)O)c1ccc2c(c1)C(N1Cc3cccnc3OC(C)(C)C1)CC2` (stereo not drawn) [Example 60, 3-(3-(2,2-Dimethyl-2,3-dihydropyrido[3,2-f][1,4]oxazepin-4(5H)-yl)-2,3-dihydro-1H-inden-5-yl)-3-(4-fluoro-2-methylphenyl)propanoic Acid, Formic Acid Salt], the EC50 lay within 100 to 1000 nM.

Regarding `Cc1c(C(CC(=O)O)c2ccc3c(c2)C(N2Cc4cccnc4O[C@H](C)C2)CC3)ccc2c1nnn2C` (stereo partly drawn) [Example 61, 3-(1,4-Dimethyl-1H-benzo[d][1,2,3]triazol-5-yl)-3-(3-((R)-2-methyl-2,3-dihydropyrido[3,2-f][1,4]oxazepin-4(5H)-yl)-2,3-dihydro-1H-inden-5-yl)propanoic Acid, Formic Acid Salt], the EC50 was in the range of 1000 to 10000 nM.

Take `Cn1nnc2cc(C(CC(=O)O)c3ccc4c(c3)C(N3Cc5cccnc5OC(C)(C)C3)CC4)ncc21` (stereo not drawn) [Example 62, 3-(3-(2,2-Dimethyl-2,3-dihydropyrido[3,2-f][1,4]oxazepin-4(5H)-yl)-2,3-dihydro-1H-inden-5-yl)-3-(3-methyl-3H-[1,2,3]triazolo[4,5-c]pyridin-6-yl)propanoic Acid, Formic Acid Salt]: the EC50 fell in the range of 1000 to 10000 nM.

As to `CCCc1cn(CCC(CC(=O)O)c2ccc3c(c2)C(N2Cc4ccccc4OC(C)(C)C2)CC3)nn1` (stereo not drawn) [Example 63, 3-(3-(2,2-Dimethyl-2,3-dihydrobenzo[f][1,4]oxazepin-4(5H)-yl)-2,3-dihydro-1H-inden-5-yl)-5-(4-propyl-1H-1,2,3-triazol-1-yl)pentanoic Acid, Trifluoroacetic Acid Salt], the EC50 fell in the range of 1000 to 10000 nM.

Values taken from patent US10272095B2 (GlaxoSmithKline Intellectual Property Development Limited, priority 2015, dated 2019).
